The values that follow come from patent publication US9162977B2, “Synthetic ion channels” (The University of Hong Kong, priority 2006, dated 2015).

“Also recorded” adds a separate entry of the source.

The nature of data set [1]: pH-stat fluorometric transport assay (HPTS-loaded liposomes). Format: biochemical. The text has this: This Example illustrates that the compound of Example 2 mediates chloride release when incorporated into liposomes. The liposome-based pH-stat fluorometric assay is an assay routinely used for identification of physiologically relevant ionophores, which are disclosed in (a) Deng, G., Dewa, T. and Regen, S. L. J. Am. Chem. Soc. 1996, 118, 8975; (b) Schlesinger, P. H., Ferdani, R., Liu, J., Pajewska, J., Pajewski, R., Saito, M., Shabany, H. and Gokel, G. W. J. Am. Chem. Soc. 2002, 124, 1848; (c) Sidorov, V., Kotch, F. W., Abdrakhmanova, G., Mizani, R., Fettinger, J. C. and Davis, J. T. J. Am. Chem. Soc. 2002, 124, 2267; (d) Sidorov, V., Kotch, F. W., Kuebler, J. L., Lam, Y.-F. and Davis, J. T. J. Am. Chem. Soc. 2003, 125, 2840; and (e) Baumeister, B., Sakai, N. and Matile, S. Angew. Chem., Int. Ed. 2000, 39, 1955, all of which are incorporated herein by reference. For example, in this assay, a controlled amount of the base and potential ionophore is added to a suspension of liposomes containing a pH-sensitive dye, 8-hydroxypyrene-1,3,6-trisulfonate (HPTS, pyranine). The resulting pH gradient across the bilayer membrane causes the efflux of hydronium ions or the influx of hydroxide ions and builds up an electrostatic potential. This potential can be compensated by the efflux of anions or influx of cations (H^+/M^+ or OH^−/A^− antiport and H^+/A^− or M^+/OH^− symport mechanisms are possible). If the compound of interest mediates such ion transport, the efflux of hydronium ions or the influx of hydroxide ions continues altering the […] pH and the fluorescence of the reporter dye.
Example 2-mediated chloride release was determined in large unilamellar vesicles (LUVs) of 100 nm average dimension, as reported in Sidorov, V., Kotch, F. W., Abdrakhmanova, G., Mizani, R., Fettinger, J. C. and Davis, J. T. J. Am. Chem. Soc. 2002, 124, 2267. […] Importantly, Example 2 mediated electrolyte exchange with high anion selectivity. It mediated electrolyte exchange in the presence of chloride but not in the presence of sulfate (see FIG. 6).

Data set [2] in a line: Single-channel recording by patch-clamp on giant liposomes. Format: biochemical. The text has this: Single-channel recording, using patch clamp techniques, is the most critical test for identifying ion channel formation, which is distinguished from other ion transport mechanisms such as ion carriers, and quantifying ion transport efficiency of a membrane channel. The channel-forming activity of Example 2 incorporated in lipid bilayers is examined using patch-clamp technique on giant liposomes.
The two key properties of ion channels in nature are ion selectivity, that is, a channel permits only certain ionic species to flow through its pore, and gating referring to the mechanism of channel opening and closing.

Data set [3] deals with human embryonic kidney (HEK 293) cells. As to the kind of experiment: Whole-cell patch-clamp recording of chloride currents. Format: cell-based. Here is the method:
The whole-cell configuration of the patch-clamp technique was used to examine the electrophysiological properties of the ionic currents induced by Example 2 in human embryonic kidney (HEK 293) cells. HEK 293 cell line originally obtained from the American Type Culture Collection, were cultured in DMEM supplemented with 10% FBS and 100 IU/ml penicillin G and 0.1 mg/ml streptomycin. Cells were grown at 37° C. in a 5% CO2 humidified incubator. Whole-cell chloride currents were recorded by using an EPC 9 patch clamp amplifier (HEKA Elektronik, Lambrecht/Pfalz, Germany) in voltage-clamp mode, controlled by Pulse/PulseFit 8.7 software (HEKA). Patch pipettes (resistance, 3-5 MΩ) were filled with a solution internal pipette solution containing CsCl 140, MgCl2 1, HEPES 10, EGTA 5, Na2ATP 5 (in mmol/L, pH 7.2 with CsOH). The bath solution contained NaCl 140, CsCl 5, CaCl2 1, MgCl2 1, HEPES 10 (in mmol/L, pH 7.4 with CsOH). After gigaohm seals were obtained, the membrane was ruptured with a pulsed negative pressure. Pipette and membrane capacitance were automatically compensated. Series resistance was typically compensated by 70%. […] All macroscopic currents were sampled at 50 kHz and filtered at 5 kHz, and data were analyzed with PulseFit (HEKA). Changes of Cl current were detected from the same cells before and after exposure to the bath solution containing Example 2 at the concentration of 50 nM. […]

For the compound `CCCCCCCCCCCCCCCCCCNC(=O)[C@@H](CC(C)C)ONC(=O)c1cccc(C(=O)NO[C@H](CC(C)C)C(=O)NCCCCCCCCCCCCCCCCCC)c1` [Example 5], the melting point was in the range of 88 to 90 °C.

In turn, `CC(C)CNC(=O)[C@@H](CC(C)C)ONC(=O)c1ccccc1` [Example 6] yielded a melting point of 130 to 132 °C.

Regarding `CC(C)CNC(=O)[C@@H](CC(C)C)ONC(=O)c1cccc(C(=O)NO[C@H](CC(C)C)C(=O)NCC(C)C)c1` [Example 2], the melting point is 176 to 178 °C. Besides, the “exchange between extra- and intravesicular electrolytes (chloride release)” value in data set [1] (LUVs of 100 nm, NaCl extra- and intravesicular buffers, FIG. 5) is on record as “rapid, concentration-dependent exchange”. In addition, the “transport activity in LUVs loaded with sulfate” value in data set [1] (LUVs symmetrically loaded with Na2SO4, FIG. 6) was “no transport activity was detected”. Further, the “chloride transport across lipid bilayers of chloride-containing liposomes” value in data set [1] (LUVs, NaCl extra- and intravesicular buffers, FIG. 7 and FIG. 12) is “mediates chloride transport across the bilayer”. Moreover, the “change in conductance or reversal potential” value in data set [2] (NMDG-Cl in the bath solution replaced by KCl) is reported as “no measurable change”. In addition, the “ion selectivity of the channels formed” value in data set [2] (giant liposomes, patch clamp) is recorded as “chloride selectivity; also recorded: anion selective”. For the same compound, in data set [2] (giant liposomes, patch clamp, FIG. 8), the “gating of the channels formed” value is given as “voltage dependent gating; also recorded: voltage-gated”. In data set [2] (symmetric 0.2 M N-methyl-glucamine hydrochloride (NMDG-Cl) solutions, compound in bath solution, FIG. 8), this compound had a primary single-channel conductance of 54 pS. In addition, the “channel open probability (Po) and frequency” value in data set [2] (upon increasing voltages of lipid bilayers within a physiologically relevant range, FIG. 8) is “enhanced steeply”. The “whole cell (chloride) currents” value in data set [3] (50 nM in bath solution, room temperature, FIG. 9) is “dramatically increases cell chloride currents; also recorded: large increase”. The “induced whole cell currents in the presence of an anion transport inhibitor” value in data set [3] (in the presence of DIDS) is “not reduced”.

For `CC(C)C[C@@H](ONC(=O)c1cccc(C(=O)NO[C@H](CC(C)C)C(=O)OC(C)(C)C)c1)C(=O)OC(C)(C)C` [Example 1], the melting point fell in the range of 57 to 59 °C.

On to `CC(C)CNC(=O)[C@@H](CC(C)C)ONC(=O)c1cccc(C(=O)NO[C@H](CC(C)C)C(=O)NCC(C)C)n1` [Example 7], for which the melting point was in the range of 175 to 177 °C.

In turn, `CC(C)CNC(=O)[C@H](CC(C)C)OC(=O)c1cccc(C(=O)O[C@@H](CC(C)C)C(=O)NCC(C)C)c1` [Example 9] yielded a melting point of 137 to 139 °C.

Regarding `CC(C)CNC(=O)[C@H](CC(C)C)NC(=O)c1cccc(C(=O)N[C@@H](CC(C)C)C(=O)NCC(C)C)c1` [Example 8], the melting point fell in the range of 240 to 242 °C.
